Laboratory results reported in patent publication US6846641B2, “In vitro ischemia model” (AGY Therapeutics, Inc., priority 2002, dated 2005).
Structures can show the parent of a compound that is named as a salt.

Columns and labels:
CA1 cells = conditions: given after the ischemic insult; cited from earlier work
[1] = test system: CA1 region of mouse hippocampal organotypic tissue cultures; experiment: Oxygen and glucose deprivation (OGD) in iCSF, propidium iodide uptake in mouse hippocampal organotypic cultures; assay type: cell-based; conditions: 24 hours of recovery

SMILES | protection of CA1 cells (CA1 cells) | less damage in the CA1 region compared to matched OGD-control cultures ([1]; 20 μM, pretreatment one hour before 15-minute OGD in iCSF) [%] | protective effect (damage in CA1 versus OGD-controls) ([1]; 150 μM, one hour before OGD, in iCSF during 15-minute OGD and throughout recovery) [%] | protective effect against 15-minute-OGD in iCSF (PI-intensity in the CA1-area) ([1]; 150 μM, p<0.0001, n=18-24)
C[C@]12N[C@H](Cc3ccccc31)c1ccccc12 [MK-801, dizocilpine maleate] | protected CA1 cells | 90 |  | 
N[C@H](CCCP(=O)(O)O)C(=O)O [D-AP5, D-2 amino-5-phosphonopentanoic-acid] |  |  | 70 | significant
